Where two headings read alike, the source gives them in different places.

The target in one series is CYP1A2 (Homo sapiens (Human), UniProt P05177). Description: CYP1A2 inhibition in human liver microsomes. Format: in vitro ADME. The protocol:
The specific marker metabolites are measured with LC/MS/MS. The remaining enzymatic activities and inhibitory potency IC50 are determined. Microsomes are removed out of the −80° C. freezer to thaw on ice and 20 μL of the substrates solution added to the corresponding wells. […] Then 158 μL of the HLM working solution was added to all wells of the incubation plate. The plate was pre-warmed for about 10 min using a 37° C. water bath. Then 20 μL of the NADPH cofactor solution was added to all incubation wells, mixed and incubated for 10 minutes at 37° C. water bath. The reaction is terminated by adding 400 μL cold stop solution (200 ng/mL Tolbutamide and 200 ng/mL Labetalol in ACN). […] Finally 200 μL of the supernatant was transferred to 100 μL HPLC water, shaken for 10 min and analyzed by LC/MS/MS.

In the next series the target is human Nav1.6 (hNav1.6) (Homo sapiens (Human), UniProt Q9UQD0). As to the kind of experiment: Inhibition of late sodium current (INaL) at hNav1.6, PatchXpress electrophysiology. The series is classed as cell-based. Conditions: 1 μM compound; HEK-293 cells expressing recombinant hNav1.6; late current evoked by 300 nM ATX-II. The protocol: Functional characterization of exemplary compounds to modulate INaL expressed by the Nav1.6 voltage-gated sodium channel was accomplished using the PatchXpress™ high throughput electrophysiology platform (Molecular Devices, Sunnyvale, CA). HEK-293 cells expressing recombinant, human Nav1.6 (hNav1.6)were grown in DMEM/high-glucose Dulbecco's modified, 10% FBS, 2 mM sodium pyruvate, 10 mM HEPES and 400 μg/mL G418. Cells were grown to 50%-80% confluency prior to harvesting. […] The onboard liquid handling facility of the PatchXpress was used for dispensing cells and applying test compounds. Nav late currents were evoked by the application of 300 nM ATX-II. […] INaL amplitude and stability were determined by analyzing the mean current amplitude over the final 20 ms of the test pulse. […] Percent steady-state inhibition of INaL was calculated as: [(INaL_compound)/(INaL_control)]*100, where INaL_compound and INaL_control represent INaL recorded in the presence or absence of compound, respectively.

A short description of series [1]: PK rat clearance experiment. Particulars: male Sprague-Dawley rats, single intravenous bolus 0.5 mg/kg, plasma.
Description: (§1) The IV dosing solution was prepared freshly on the dosing day. Test article (0.5 mg/kg) was prepared in a vehicle, for example, consisting of 5% DMSO/5% solutol/90% water. The concentrations of test article in all dosing solutions were determined by HPLC/UV. Three male Sprague-Dawley rats were used in this study. The animals were confirmed healthy before being assigned to the study. Each animal was given a unique identification number which was marked on the tail or the ear, and written on the cage card. All animals were fasted overnight before dosing and the food was returned at 4 hours post dosing. Water was provided to all animals ad libitum during the fasting period. Animals were weighed prior to dose administration on the day of dosing for calculating the actual dose volume. The body weights were in the range from 212 g to 223 g for males. All animals received test article by single intravenous bolus administration at 0.5 mg/kg. Approximately 0.2 mL blood was collected at each time point via jugular vein from each study animal. […] All blood samples were transferred into pre-labeled plastic micro centrifuge tubes and mixed with the pre-loaded anti-coagulant K2EDTA (5 μL, 0.5 M). Plasma samples were then prepared by centrifuging the blood samples. All plasma samples were then quickly frozen over dry ice and kept at −60° C. or lower until LC/MS/MS analysis. The concentrations of test article in plasma were determined by using a quantitative bioanalytical LC/MS/MS method. The lower limit of quantitation (LLOQ) for test article in plasma was 1 ng/mL, and the upper limit of quantitation (ULOQ) in plasma was 3000 ng/mL. The plasma concentration of test article in rats was subjected to a non compartmental pharmacokinetic analysis by using the Phoenix WinNonlin software (version 6.3, Pharsight, Mountain View, CA).
(§2) The linear/log trapezoidal rule was applied in obtaining the PK parameters.
The conditions of series [2]: rat, in vivo, iv, 0.5 mg/kg.
Description: as §1, §2
Where [3] appears, read: pooled human liver microsomes, substrate Phenacetin, read-out: CYP1A2 IC50 mean.

Sequence of human Nav1.6 (hNav1.6) (Q9UQD0 whole entry): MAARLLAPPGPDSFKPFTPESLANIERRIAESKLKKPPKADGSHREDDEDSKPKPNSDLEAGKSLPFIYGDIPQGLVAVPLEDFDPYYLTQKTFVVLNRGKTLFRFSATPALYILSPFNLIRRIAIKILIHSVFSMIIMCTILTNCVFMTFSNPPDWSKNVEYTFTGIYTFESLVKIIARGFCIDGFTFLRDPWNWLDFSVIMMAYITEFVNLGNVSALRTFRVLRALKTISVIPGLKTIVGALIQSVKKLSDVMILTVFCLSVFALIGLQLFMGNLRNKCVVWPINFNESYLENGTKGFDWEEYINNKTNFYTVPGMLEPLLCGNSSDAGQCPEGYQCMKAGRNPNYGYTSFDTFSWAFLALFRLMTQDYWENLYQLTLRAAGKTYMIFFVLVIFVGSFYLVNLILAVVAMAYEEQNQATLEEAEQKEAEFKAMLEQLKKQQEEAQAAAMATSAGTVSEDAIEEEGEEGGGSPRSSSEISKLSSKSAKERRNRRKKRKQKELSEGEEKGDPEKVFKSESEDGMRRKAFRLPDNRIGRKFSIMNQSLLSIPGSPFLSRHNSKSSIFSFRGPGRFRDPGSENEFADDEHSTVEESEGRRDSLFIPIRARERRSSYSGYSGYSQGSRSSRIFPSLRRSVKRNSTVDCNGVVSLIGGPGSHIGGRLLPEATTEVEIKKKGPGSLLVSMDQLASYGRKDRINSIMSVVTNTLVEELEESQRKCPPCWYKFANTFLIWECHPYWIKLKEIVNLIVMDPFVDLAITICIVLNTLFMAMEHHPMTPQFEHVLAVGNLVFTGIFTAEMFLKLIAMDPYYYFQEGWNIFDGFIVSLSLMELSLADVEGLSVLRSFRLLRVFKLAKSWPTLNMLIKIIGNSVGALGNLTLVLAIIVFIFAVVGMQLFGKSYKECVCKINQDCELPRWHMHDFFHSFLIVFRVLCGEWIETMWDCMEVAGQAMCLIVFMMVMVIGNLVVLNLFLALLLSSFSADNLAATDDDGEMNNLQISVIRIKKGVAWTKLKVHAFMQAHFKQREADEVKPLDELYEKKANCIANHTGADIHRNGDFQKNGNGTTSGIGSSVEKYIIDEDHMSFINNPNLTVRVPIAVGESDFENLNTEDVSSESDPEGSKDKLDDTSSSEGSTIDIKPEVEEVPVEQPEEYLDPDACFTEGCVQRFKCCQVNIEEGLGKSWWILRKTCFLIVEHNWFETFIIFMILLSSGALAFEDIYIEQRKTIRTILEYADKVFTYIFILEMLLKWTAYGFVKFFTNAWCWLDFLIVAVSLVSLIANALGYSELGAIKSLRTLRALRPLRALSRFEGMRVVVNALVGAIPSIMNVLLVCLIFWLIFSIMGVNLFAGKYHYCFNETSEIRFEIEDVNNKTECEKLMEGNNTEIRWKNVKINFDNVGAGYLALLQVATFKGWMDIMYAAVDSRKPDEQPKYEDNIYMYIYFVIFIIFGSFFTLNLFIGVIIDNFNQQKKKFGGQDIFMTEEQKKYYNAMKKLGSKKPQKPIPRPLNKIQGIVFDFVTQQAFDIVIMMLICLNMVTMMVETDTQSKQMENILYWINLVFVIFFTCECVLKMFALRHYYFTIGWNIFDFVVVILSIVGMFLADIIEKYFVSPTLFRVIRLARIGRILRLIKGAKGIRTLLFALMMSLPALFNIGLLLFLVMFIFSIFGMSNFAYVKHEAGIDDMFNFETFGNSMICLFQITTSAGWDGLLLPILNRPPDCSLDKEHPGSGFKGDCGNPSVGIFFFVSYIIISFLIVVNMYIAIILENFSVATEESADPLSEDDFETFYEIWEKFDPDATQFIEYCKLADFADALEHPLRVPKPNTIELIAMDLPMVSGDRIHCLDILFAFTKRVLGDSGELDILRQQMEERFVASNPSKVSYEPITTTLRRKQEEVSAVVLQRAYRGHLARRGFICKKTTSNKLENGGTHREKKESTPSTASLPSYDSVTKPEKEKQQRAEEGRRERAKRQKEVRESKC
Sequence of CYP1A2 (P05177 whole entry): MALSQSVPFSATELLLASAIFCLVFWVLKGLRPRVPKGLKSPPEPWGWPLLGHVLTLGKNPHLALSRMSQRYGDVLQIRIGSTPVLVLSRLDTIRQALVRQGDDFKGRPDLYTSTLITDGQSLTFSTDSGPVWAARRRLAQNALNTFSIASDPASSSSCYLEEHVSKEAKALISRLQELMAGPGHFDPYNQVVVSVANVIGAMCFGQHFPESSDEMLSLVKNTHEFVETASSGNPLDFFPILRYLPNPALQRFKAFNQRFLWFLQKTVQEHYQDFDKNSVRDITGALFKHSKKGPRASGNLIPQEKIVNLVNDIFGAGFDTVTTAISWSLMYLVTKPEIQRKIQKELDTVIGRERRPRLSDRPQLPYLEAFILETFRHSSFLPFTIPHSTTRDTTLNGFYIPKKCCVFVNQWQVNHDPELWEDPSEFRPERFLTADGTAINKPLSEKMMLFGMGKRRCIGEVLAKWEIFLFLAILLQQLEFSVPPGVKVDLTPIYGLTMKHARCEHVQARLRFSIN

The term IC50 denotes the concentration that gives 50% inhibition. Regarding `FC(F)(F)OCc1ccc(-c2ccc3nnc(C(F)(F)F)n3n2)cc1` [Compound 118], the IC50 against CYP1A2 (microsomes) is less than 1 µM.
For `Fc1cc(-c2cn3c(C(F)F)nnc3cn2)cnc1OCC(F)(F)F` [Compound 68], the “INaL v1.6 (1 μM, % Inhibition)” value at human Nav1.6 (hNav1.6) was “B (inhibition of between about 30% to about 70%)”. On CYP1A2 (setting [3]), the IC50 was more than 30 µM. For the same molecule, in series [1], the Clearance is listed as 15.8 mL/min/kg and the T1/2 is given as 1.5 h.
For `Fc1cc(-c2cn3c(C(F)(F)F)nnc3cn2)ccc1OC(F)(F)F` [Compound 79], the IC50 at CYP1A2 (microsomes) is less than 1 µM.
Still for that read-out and setting: then `COC(F)(F)c1nnc2cnc(-c3ccc(OC(F)(F)F)cc3)cn12` [Compound 97], with less than 1 µM; and `FC(F)(F)c1ccc(-c2cn3c(C(F)(F)F)nnc3cn2)cc1` [Compound 62], with less than 1 µM.
With `FC(F)(F)Oc1ccc(-c2ccc3nnc(C4CC4(F)F)n3n2)cc1` (stereo not drawn) [Compound 46], on human Nav1.6 (hNav1.6), the “INaL v1.6 (1 μM, % Inhibition)” value is reported as “C (inhibition of greater than 70%)”. Moreover, the half-inhibitory concentration (IC50) on CYP1A2 (setting [3]) was 1 to 15 µM. In series [1], the Clearance was 4.7 mL/min/kg and the T1/2 came out at 4.5 h.
For `FC(F)Oc1ccc(-c2ccc3nnc(C(F)(F)F)n3n2)cc1` [Compound 116], on CYP1A2 (microsomes), the IC50 is less than 1 µM.
Regarding `Fc1cc(-c2cn3c(C(F)(F)F)nnc3cn2)cnc1OC1CC(F)(F)C1` [Compound 84], the “INaL v1.6 (1 μM, % Inhibition)” value on human Nav1.6 (hNav1.6) was “C (inhibition of greater than 70%)”. Besides, the IC50 at CYP1A2 (setting [3]) fell in the range of 1 to 15 µM. Further, in series [1], the Clearance was 21.9 mL/min/kg and the T1/2 came to 2.1 h.
Turning to `COc1cc(OC(F)(F)F)ccc1-c1cn2c(C(F)F)nnc2cn1` [Compound 48], on CYP1A2 (microsomes), the IC50 is less than 1 µM.
Turning to `COCc1cc(OC(F)(F)F)ccc1-c1cn2c(C(F)(F)F)nnc2cn1` [Compound 66], the “INaL v1.6 (1 μM, % Inhibition)” value on human Nav1.6 (hNav1.6) is “C (inhibition of greater than 70%)”. Further, on CYP1A2 (microsomes), the IC50 lay within 1 to 15 µM.
Turning to `FC(F)(F)Oc1ccc(-c2cn3c(C(F)(F)F)nnc3cn2)cc1` [Compound 56], on CYP1A2 (setting [3]), the IC50 was less than 1 µM.
As for `C[C@@H](Oc1ncc(-c2cn3c(C(F)F)nnc3cn2)cc1F)C(F)(F)F` [Compound 134], in series [2], the Clearance was found to be 10.9 mL/min/kg and the T1/2 was found to be 2.6 h. Moreover, at human Nav1.6 (hNav1.6), the “INaL v1.6 (1 μM, % Inhibition)” value was “C (inhibition of greater than 70%)”. Besides, the IC50 on CYP1A2 (microsomes) was more than 30 µM.
Molecule `FC(F)c1nnc2cnc(-c3ccc(OC(F)(F)F)cc3)cn12` [Compound 47] had an IC50 at CYP1A2 (microsomes) of less than 1 µM.
On the same count and under the same terms, under `Fc1cc(C(F)(F)F)ccc1-c1cn2c(C(F)(F)F)nnc2cn1` [Compound 76] stands less than 1 µM; under `COc1cc(OC(F)(F)F)ccc1-c1cn2c(C(F)(F)F)nnc2cn1` [Compound 70], less than 1 µM; under `Cc1cc(-c2ccc3nnc(C(F)(F)F)n3n2)ccc1C(F)(F)F` [Compound 98], less than 1 µM.
`FC(F)(F)c1ccc(-c2ccc3nnc(C(F)(F)F)n3n2)cc1` [Compound 1]: at CYP1A2 (microsomes), the IC50 is less than 1 µM.

These data come from patent US20250163068A1, “COMPOUNDS AND THEIR METHODS OF USE” (Praxis Precision Medicines, Inc., priority 2016, published 2025).
